# Where two headings read alike, the source gives them in different places.
# What was measured:
# [1] = Blood pressure lowering effect of samples (31)-(38) in SHR rats, same manner as Test example 6 (Table 11); type: in vivo, rat; details: oral
# [2] = Oral administration experiment with SHR rats (summary statement); type: in vivo, rat
# [3] = rats, intraperitoneal; Non-Patent Documents 5 and 6; cited from earlier work
# [4] = Non-Patent Document 4; cited from earlier work
# [5] = Test example 6: test of blood pressure lowering effect using SHR rats, samples (16)-(30) (Table 9); type: in vivo, rat; details: oral, mean ± SE, dose mg/kg: 17: 500, 18: 1.5, 19: 3.0, 20, 21, 24, 26, 27, 28, 30: 50, 22, 23: 20, 25, 29: 100
# [6] = n=5, 0 h (before administration), mean ± SE, dose mg/kg: 32, 33, 35, 36, 37: 20, 34: 23.4, 38: 32.4
# [7] = n=5, 2 h after administration, mean ± SE, dose mg/kg: 32, 33, 35, 36, 37: 20, 34: 23.4, 38: 32.4
# [8] = n=5, 4 h after administration, mean ± SE, dose mg/kg: 32, 33, 35, 36, 37: 20, 34: 23.4, 38: 32.4
# [9] = n=5, column after 4 h, time not printed in this copy (line cut), dose mg/kg: 32, 33, 35, 36, 37: 20, 34: 23.4, 38: 32.4
Compound,"systolic blood pressure [1, 6]","systolic blood pressure [1, 7]","systolic blood pressure [1, 8]","systolic blood pressure [1, 9]","blood pressure during systole and diastole ([2]; SHR rats, oral administration)","effect on heart rate ([2]; SHR rats, oral administration)",also measured
"CC(C)C[C@H](N)C(=O)O [Sample 21, Leucine]",189±1.7,162±1.0,162±2.7,174,significantly reduce blood pressure during systole and diastole,,"effect on heart rate ([2]; rat, in vivo, po): without affecting the heart rate"
"CC[C@H](C)[C@H](N)C(=O)O [Sample 20, Isoleucine]",,163±2.5,162+2.6,180,significantly reduce blood pressure during systole and diastole,without affecting the heart rate,
N[C@@H](CCC(=O)O)C(=O)O [glutamic acid],,,,,significantly reduce blood pressure during systole and diastole,without affecting the heart rate,
N[C@@H](Cc1c[nH]c2ccccc12)C(=O)O [L-tributophan],,,,,,,blood pressure lowering effect [3]: blood pressure lowering effect
"N=C(N)NCCC[C@H](N)C(=O)O [Sample 22, Arginine]",,,,,,,blood pressure lowering effect [4]: blood pressure lowering effect in systole and diastole; heart rate [4]: increase in heart rate
"N[C@@H](Cc1c[nH]cn1)C(=O)O [Sample 23, Histidine]",186+1.7,152+3.3,157±1.6,171,significantly reduce blood pressure during systole and diastole,without affecting the heart rate,
bovine serum albumin [Sample 17],,,,,,,"systolic blood pressure ([5]; n=5, 0 h (before administration)): 186 + 2.2 mmH; systolic blood pressure ([5]; n=5, 2 h after administration): 169 + 1.8 mmH; systolic blood pressure ([5]; n=5, 4 h after administration): 170 ± 0.5 mmH"
"N[C@@H](Cc1ccccc1)C(=O)O [Sample 37, phenylalanine]",191±1.5,,165±1.7,175,significantly reduce blood pressure during systole and diastole,without affecting the heart rate,
"N[C@@H](CO)C(=O)O [Sample 36, Serine]",,164±1.4,158±3.7,172,significantly reduce blood pressure during systole and diastole,,"systolic blood pressure ([1]; n=5, 0 h (before administration), mean ± SE, dose mg/kg: 32, 33, 35, 36, 37: 20, 34: 23.4, 38: 32.4, in mmHg): 190+2.0; effect on heart rate ([2]; rat, in vivo, po): without affecting the heart rate"
"N[C@@H](CCC(=O)[O-])C(=O)[O-].[Na+].[Na+] [Sample 25, Sodium glutamate]",,165±2.,,177,,,
"N[C@@H](Cc1ccc(O)cc1)C(=O)O [Sample 38, Tyrosine, reference compound]",189±1.7,161 ±1.8,159±1.1,169,,,blood pressure lowering effect [3]: blood pressure lowering effect

# — WO2005063245A1, “Composition for lowering blood pressure” (priority 2003, dated 2005)
